Measured values: patent US20230286948A1 (HUYABIO International, LLC, priority 2022, published 2023)

The compounds below were run on MV-411 cells (assay: Anti-proliferative activity against MV-411 leukemia cells (CellTiterGlo viability, 72 h)). Conditions: Homo sapiens, MV4-11, 72 h, MV-411 human acute monocytic leukemia cells, a second value in parentheses is a further determination.
Format: cell-based
Procedure: Procedure: MV-411 cells were seeded into 384 well plates at 2000 cells/well density in 50 μL total volume, according to plate map and were allowed to naturally sediment by waiting about 30 min on a Clean Bench. Next, plated cells were centrifuged for 1 min at 1000 rpm and the excess cells were transferred into the flasks for further culture. Cells in the assay plates were incubated (at least 4 hrs.) at 37° C., 5% CO2 followed by adding the compounds as the plate map indicated. The tests were performed in duplicates with treatment of compounds at 10 pts 3-fold titration in 384 well plates. Taxol was used as positive control while DMSO as negative control. To rule out edge effect, the wells on the edge were not seeded and therefore one 384 well plate holds 13 compounds. Cells viability was measured 72h after incubation with compounds using CellTiterGlo (promega) viability assay according to manufacturer's instruction to check the ATP production in each well.
Experiments on anti-proliferative activity against leukemia cells were conducted with some of the compounds of the invention.
In the case of C[C@@H]1CN(c2ccc(-n3cc(C(=O)NCCCN4CCOCC4)nn3)cc2NC(=O)c2cnc(Cl)cc2C(F)(F)F)C[C@H](C)N1C [Compound 1], the GI50 is reported as 1.38 µM.
C[C@@H]1CN(c2ccc(-n3cc(C(=O)NCCCN4CCOCC4)nn3)cc2NC(=O)c2c[nH]c(=O)cc2C(F)(F)F)C[C@H](C)N1C [Compound 2] showed a GI50 of over 200 µM.
CN1CCN(c2ccc(-n3cc(C(=O)NCCCN4CCOCC4)nn3)cc2NC(=O)c2c[nH]c(=O)cc2C(F)(F)F)CC1 [Compound 4] was tested, and the GI50 was over 200 µM.
In the case of C[C@@H]1CN(c2cc(F)c(-n3cc(C(=O)NCCCN4CCOCC4)nn3)cc2NC(=O)c2cnc(Cl)cc2C(F)(F)F)C[C@H](C)N1C [Compound 5], the GI50 is reported as 7.26 µM.
C[C@@H]1CN(c2cc(F)c(-n3cc(C(=O)NCCCN4CCOCC4)nn3)cc2NC(=O)c2c[nH]c(=O)cc2C(F)(F)F)C[C@H](C)N1C [Compound 6] gave a GI50 of over 200 µM.
CN1CCN(c2cc(F)c(-n3cc(C(=O)NCCCN4CCOCC4)nn3)cc2NC(=O)c2c[nH]c(=O)cc2C(F)(F)F)CC1 [Compound 8] gave a GI50 of over 200 µM.
Compound C[C@H]1CN(c2ccc(-n3cc(C(=O)NCCCN4CCOCC4)nn3)cc2NC(=O)c2c[nH]c(=O)cc2C(F)(F)F)CCN1C [Compound 10] has a GI50 of over 200 µM.
Work on CN1CCN(c2ccc(-n3cc(C(=O)NCCCN4CCOCC4)nn3)cc2NC(=O)c2cnc(F)cc2C(F)(F)F)CC1 [Compound 11] yielded a GI50 of 2.14 µM.
In the case of Cc1cc(C(F)(F)F)c(C(=O)Nc2cc(-n3cc(C(=O)NCCCN4CCOCC4)nn3)ccc2N2CCN(C)CC2)cn1 [Compound 12], the GI50 is reported as 60.1 µM.
With CN1CCN(c2ccc(-n3cc(C(=O)NCCCN4CCOCC4)nn3)cc2NC(=O)c2cnc(C#N)cc2C(F)(F)F)CC1 [Compound 13] the GI50 was 21.8 µM.
Compound CSc1cc(C(F)(F)F)c(C(=O)Nc2cc(-n3cc(C(=O)NCCCN4CCOCC4)nn3)ccc2N2CCN(C)CC2)cn1 [Compound 14] has a GI50 of 25.3 µM.
CN1CCN(c2ccc(-n3cc(C(=O)NCCCN4CCOCC4)nn3)cc2NC(=O)c2cnc(S(C)(=O)=O)cc2C(F)(F)F)CC1 [Compound 15] gave a GI50 of over 237 µM.
In the case of COc1cc(C(F)(F)F)c(C(=O)Nc2cc(-n3cc(C(=O)NCCCN4CCOCC4)nn3)ccc2N2CCN(C)CC2)cn1 [Compound 16], the GI50 is reported as 51.9 µM.
CN1CCN(c2ccc(-n3cc(C(=O)NCCCN4CCOCC4)nn3)cc2NC(=O)c2cnc(N)cc2C(F)(F)F)CC1 [Compound 18] showed a GI50 of 42.7 µM.
CN1CCN(c2ccc(-n3cc(C(=O)NCCCN4CCOCC4)nn3)cc2NC(=O)c2cnc(Cl)cc2Cl)CC1 [Compound 19] gave a GI50 of 0.91 µM.
Compound CN1CCN(c2ccc(-n3cc(C(=O)NCCCN4CCOCC4)nn3)cc2NC(=O)c2cnc(C(F)(F)F)cc2Cl)CC1 [Compound 20] has a GI50 of 2.86 µM.
With Cc1c(Cl)ncc(C(=O)Nc2cc(-n3cc(C(=O)NCCCN4CCOCC4)nn3)ccc2N2CCN(C)CC2)c1Cl [Compound 21] the GI50 was 2.5 µM.
Work on CN1CCN(c2ccc(-n3cc(C(=O)NCCCN4CCOCC4)nn3)cc2NC(=O)c2cnc(C(F)F)cc2Cl)CC1 [Compound 22] yielded a GI50 of 39.7 µM.
With CN1CCN(c2ccc(-n3cc(C(=O)NCCCN4CCOCC4)nn3)cc2NC(=O)c2cnc(C#N)cc2N(C)C)CC1 [Compound 23] the GI50 was 196 µM.
With Cc1cc(N)ncc1C(=O)Nc1cc(-n2cc(C(=O)NCCCN3CCOCC3)nn2)ccc1N1CCN(C)CC1 [Compound 24] the GI50 was over 200 µM.
Cc1cc(F)ncc1C(=O)Nc1cc(-n2cc(C(=O)NCCCN3CCOCC3)nn2)ccc1N1CCN(C)CC1 [Compound 25] was tested, and the GI50 was 146 µM.
With Cc1ncc(C(=O)Nc2cc(-n3cc(C(=O)NCCCN4CCOCC4)nn3)ccc2N2CCN(C)CC2)c(C(F)(F)F)n1 [Compound 26] the GI50 was 75.2 µM.
With CSc1ncc(C(=O)Nc2cc(-n3cc(C(=O)NCCCN4CCOCC4)nn3)ccc2N2CCN(C)CC2)c(C(F)(F)F)n1 [Compound 27] the GI50 was 18.5 µM.
Compound CN1CCN(c2ccc(-n3cc(C(=O)NCCCN4CCOCC4)nn3)cc2NC(=O)c2cnc([S+](C)[O-])nc2C(F)(F)F)CC1 (stereo not shown) [Compound 28] has a GI50 of over 200 µM.
With CCOc1ncc(C(=O)Nc2cc(-n3cc(C(=O)NCCCN4CCOCC4)nn3)ccc2N2CCN(C)CC2)c(C(F)(F)F)n1 [Compound 29] the GI50 was 18.4 µM.
With COc1nc(SC)ncc1C(=O)Nc1cc(-n2cc(C(=O)NCCCN3CCOCC3)nn2)ccc1N1CCN(C)CC1 [Compound 30] the GI50 was 12.2 µM.
Work on Cc1nc(C(F)(F)F)ncc1C(=O)Nc1cc(-n2cc(C(=O)NCCCN3CCOCC3)nn2)ccc1N1CCN(C)CC1 [Compound 31] yielded a GI50 of 106 µM.
Work on CN1CCN(c2ccc(-n3cc(C(=O)NCCCN4CCOCC4)nn3)cc2NC(=O)c2nnc(Cl)cc2Cl)CC1 [Compound 32] yielded a GI50 of 1.24 µM.
CN1CCN(c2ccc(-n3cc(C(=O)NCCCN4CCOCC4)nn3)cc2NC(=O)c2nnc(Cl)cc2N)CC1 [Compound 33] was tested, and the GI50 was 35.3 µM.
CN1CCN(c2ccc(-n3cc(C(=O)NCCCN4CCOCC4)nn3)cc2NC(=O)c2ncc(Cl)nc2Cl)CC1 [Compound 34] showed a GI50 of 0.37 µM.
Work on COc1cnc(C(=O)Nc2cc(-n3cc(C(=O)NCCCN4CCOCC4)nn3)ccc2N2CCN(C)CC2)c(Cl)n1 [Compound 35] yielded a GI50 of 2.42 µM.
In the case of COc1cnc(C(=O)Nc2cc(-n3cc(C(=O)NCCCN4CCOCC4)nn3)ccc2N2CCN(C)CC2)c(OC)n1 [Compound 36], the GI50 is reported as 28.2 µM.
With CN1CCN(c2ccc(-n3cc(C(=O)NCCCN4CCOCC4)nn3)cc2NC(=O)c2ccc(Cl)nc2C(F)(F)F)CC1 [Compound 37] the GI50 was 44.3 µM.
In the case of COc1ccc(C(=O)Nc2cc(-n3cc(C(=O)NCCCN4CCOCC4)nn3)ccc2N2CCN(C)CC2)c(C(F)(F)F)n1 [Compound 38], the GI50 is reported as 67.9 µM.
Compound CN1CCN(c2ccc(-n3cc(C(=O)NCCCN4CCOCC4)nn3)cc2NC(=O)c2ccc(C#N)nc2C(F)(F)F)CC1 [Compound 39] has a GI50 of 20.2 µM.
Work on CN1CCN(c2ccc(-n3cc(C(=O)NCCCN4CCOCC4)nn3)cc2NC(=O)c2ccc(C(N)=O)nc2C(F)(F)F)CC1 [Compound 40] yielded a GI50 of over 200 µM.
CN1CCN(c2ccc(-n3cc(C(=O)NCCCN4CCOCC4)nn3)cc2NC(=O)c2ccc(N)nc2C(F)(F)F)CC1 [Compound 41] showed a GI50 of 108 µM.
COc1ccc(CNc2ccc(C(=O)Nc3cc(-n4cc(C(=O)NCCCN5CCOCC5)nn4)ccc3N3CCN(C)CC3)c(C(F)(F)F)n2)cc1 [Compound 42] was tested, and the GI50 was 3.17 µM.
CSc1ccc(C(=O)Nc2cc(-n3cc(C(=O)NCCCN4CCOCC4)nn3)ccc2N2CCN(C)CC2)c(C(F)(F)F)n1 [Compound 43] gave a GI50 of 19.9 µM.
With CN1CCN(c2ccc(-n3cc(C(=O)NCCCN4CCOCC4)nn3)cc2NC(=O)c2ccc(S(C)(=O)=O)nc2C(F)(F)F)CC1 [Compound 44] the GI50 was 49.9 µM.
CN1CCN(c2ccc(-n3cc(C(=O)NCCCN4CCOCC4)nn3)cc2NC(=O)c2ncc(N)cn2)CC1 [Compound 45] gave a GI50 of 11.2 µM.
Compound CN1CCN(c2ccc(-n3cc(C(=O)NCCCN4CCOCC4)nn3)cc2NC(=O)c2ccc(Cl)cc2C(F)(F)F)CC1 [Compound 46] has a GI50 of 22.4 µM.
Cc1cc(Cl)c(C(=O)Nc2cc(-n3cc(C(=O)NCCCN4CCOCC4)nn3)ccc2N2CCN(C)CC2)cc1N [Compound 49] was tested, and the GI50 was 27.7 µM.
Compound CCN(CC)C(=O)c1cn(-c2cc(NC(=O)c3cnc(Cl)cc3C(F)(F)F)c(N3C[C@@H](C)N(C)[C@@H](C)C3)cc2F)nn1 [Compound 50] has a GI50 of 0.49 µM.
For C[C@@H]1CN(c2cc(F)c(-n3cc(C(=O)N4CCN(C)CC4)nn3)cc2NC(=O)c2cnc(Cl)cc2C(F)(F)F)C[C@H](C)N1C [Compound 51], the GI50 was 1.14 µM.
Compound C[C@@H]1CN(c2cc(F)c(-n3cc(C(=O)NC4CCN(C)CC4)nn3)cc2NC(=O)c2cnc(Cl)cc2C(F)(F)F)C[C@H](C)N1C [Compound 52] has a GI50 of 1.22 µM.
Compound CCN(CC)C(=O)c1cn(-c2cc(NC(=O)c3cnc(F)cc3C(F)(F)F)c(N3C[C@@H](C)N(C)[C@@H](C)C3)cc2F)nn1 [Compound 53] has a GI50 of 0.9 µM.
In the case of COc1cc(C(F)(F)F)c(C(=O)Nc2cc(-n3cc(C(=O)NC4CCN(C)CC4)nn3)c(F)cc2N2C[C@@H](C)N(C)[C@@H](C)C2)cn1 [Compound 54], the GI50 is reported as 14.3 µM.
For COc1cc(C(F)(F)F)c(C(=O)Nc2cc(-n3cc(C(=O)NCCCN4CCOCC4)nn3)c(F)cc2N2C[C@@H](C)N(C)[C@@H](C)C2)cn1 [Compound 55], the GI50 was 27.8 µM.
With CCN(CC)C(=O)c1cn(-c2cc(NC(=O)c3cnc(Cl)cc3Cl)c(N3C[C@@H](C)N(C)[C@@H](C)C3)cc2F)nn1 [Compound 56] the GI50 was 1.17 µM.
C[C@@H]1CN(c2cc(F)c(-n3cc(C(=O)N4CCN(C)CC4)nn3)cc2NC(=O)c2cnc(Cl)cc2Cl)C[C@H](C)N1C [Compound 57] showed a GI50 of 0.74 µM.
Compound C[C@@H]1CN(c2cc(F)c(-n3cc(C(=O)NC4CCN(C)CC4)nn3)cc2NC(=O)c2cnc(C(F)(F)F)cc2Cl)C[C@H](C)N1C [Compound 58] has a GI50 of 0.68 µM.

Same assay, conditions: MV-411 human acute monocytic leukemia cells, a second value in parentheses is a further determination
CN1CCN(c2ccc(-n3cc(C(=O)NCCCN4CCOCC4)nn3)cc2NC(=O)c2cnc(F)cc2C(F)(F)F)CC1 [Compound 11] was tested, and the GI50 was 2.01 µM.
For Cc1cc(C(F)(F)F)c(C(=O)Nc2cc(-n3cc(C(=O)NCCCN4CCOCC4)nn3)ccc2N2CCN(C)CC2)cn1 [Compound 12], the GI50 was 88.8 µM.
With CN1CCN(c2ccc(-n3cc(C(=O)NCCCN4CCOCC4)nn3)cc2NC(=O)c2cnc(C#N)cc2C(F)(F)F)CC1 [Compound 13] the GI50 was 23.7 µM.
With CSc1cc(C(F)(F)F)c(C(=O)Nc2cc(-n3cc(C(=O)NCCCN4CCOCC4)nn3)ccc2N2CCN(C)CC2)cn1 [Compound 14] the GI50 was 21.4 µM.
CN1CCN(c2ccc(-n3cc(C(=O)NCCCN4CCOCC4)nn3)cc2NC(=O)c2cnc(Cl)cc2Cl)CC1 [Compound 19] gave a GI50 of 0.94 µM.
CN1CCN(c2ccc(-n3cc(C(=O)NCCCN4CCOCC4)nn3)cc2NC(=O)c2cnc(C(F)(F)F)cc2Cl)CC1 [Compound 20] was tested, and the GI50 was 3.19 µM.
Compound Cc1c(Cl)ncc(C(=O)Nc2cc(-n3cc(C(=O)NCCCN4CCOCC4)nn3)ccc2N2CCN(C)CC2)c1Cl [Compound 21] has a GI50 of 2.33 µM.
For Cc1ncc(C(=O)Nc2cc(-n3cc(C(=O)NCCCN4CCOCC4)nn3)ccc2N2CCN(C)CC2)c(C(F)(F)F)n1 [Compound 26], the GI50 was 61.7 µM.
CN1CCN(c2ccc(-n3cc(C(=O)NCCCN4CCOCC4)nn3)cc2NC(=O)c2ccc(Cl)nc2C(F)(F)F)CC1 [Compound 37] showed a GI50 of 46.2 µM.
